Data from PubChem BioAssay AID179 (DTP/NCI, 2004).
Active and inactive are the calls of the source.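 The calls were made as follows: active = compounds giving half or more protection of infected cells from virus-caused growth loss, again on retest; inactive = the rest.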

Test system: CEM cells HIV-1 protection, formazan growth assay
Test: NCI AIDS Antiviral Assay
Conditions: for IC50: measured here: growth of uninfected CEM cells
Outline: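 Five concentrations of each compound were applied to infected and uninfected human CEM cells. Protection from HIV-1 was judged from growth measured with a soluble formazan assay.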

Row | Compound | EC50 [µM] | IC50 [µM] | outcome
1 | CCN1CN(c2ccccc2)C2(CCN(CC3COc4ccccc4O3)CC2)C1=O (centres undefined) | > 200 | 115 | –
2 | C/C([O-])=C\[P+](c1ccccc1)(c1ccccc1)c1ccccc1 | > 200 | 105 | –
3 | CN(O)C(=O)/C=C/c1ccc(OCc2cccc(Cl)c2)cc1 | > 200 | 46.8 | –
4 | CCN(CC)C(=O)COc1cc2c(O)c3c(O)c(C)c4c(c13)C(=O)C(C)(O/C=C/C(OC)C(C)C(OC(C)=O)C(C)C(O)C(C)C(O)C(C)/C=C/C=C(\C)C(=O)N2)O4 (centres undefined) | > 200 | 74.1 | –
5 | Cc1[nH]c2ccccc2c1C(c1c(C)[nH]c2ccccc12)c1c(C)[nH]c2ccccc12 | 0.0631 | 58.9 | –
6 | COC(=O)C(CC(C)C)NC(=O)NC12CC3CC(CC(F)(C3)C1)C2 (centres undefined) | > 75.9 | > 75.9 | –
7 | COC1(OC)C=NNc2nccn21 | > 200 | > 200 | –
8 | COC(CN(C)C(=O)C(C)NC(=O)c1ccccc1)OC (centres undefined) | – | – | inactive
9 | Cc1cc(=O)oc2cc3c(cc12)CCCN3 | > 33.9 | > 33.9 | –
10 | COc1ccc(O)c2c(=O)c3cc(O)ccc3oc12 | > 200 | 30.2 | –
11 | CC1=CC(C)(C)NN1C1=NS(=O)(=O)c2ccccc2N1C | > 200 | > 200 | –
12 | N#CC(N=O)C(N)=O (centres undefined) | > 200 | > 200 | –
13 | Cc1cc2c(c(S(=O)(=O)c3ccccc3[N+](=O)[O-])c1)NCCC2 | 1.55 | 21.4 | –
14 | CCOC(CN(C)C(=S)Nc1cccc2ccccc12)OCC | > 200 | 158 | –
15 | OCCN(CCO)c1cc(Cl)c(Cl)cc1Cl | > 200 | 35.5 | –
16 | CCn1nc(C)c2c1C(=O)NC(C)C(=O)N2 (centres undefined) | > 200 | > 200 | –
17 | O=C1/C(=C/c2cccc([N+](=O)[O-])c2)COc2ccc(Br)cc21 | > 10.5 | > 10.5 | –
18 | COc1cc2c(cc1OC)C1CC(=O)C3=C(CCCC3)N1CC2 (centres undefined) | > 200 | 91.2 | –
19 | Cc1nc2ccccc2c(=O)n1Cc1nc2ccccc2[nH]1 | – | – | inactive
20 | COC(=O)C(C#N)C1NC(=O)c2ccccc21 (centres undefined) | > 81.3 | > 81.3 | –
21 | CCOC(=O)C(NC(=O)c1ccccc1)(Nc1ccc(S(=O)(=O)Nc2ccc(OC)nn2)cc1)C(F)(F)F (centres undefined) | > 200 | > 200 | –
22 | COc1c(C)c2c(c(O)c1C/C=C(\C)CCC(=O)O)C(=O)OC2 | > 7.76 | 0.0355 | –

Row | Compound | EC50 [µM] | IC50 [µM] | outcome
23 | CN(C)[C@@H]1C(=O)C(C(=O)NCNC(CO)(CO)CO)=C(O)[C@@]2(O)C(=O)C3=C(O)c4c(O)cccc4[C@@](C)(O)[C@H]3C[C@@H]12 | > 42.7 | 33.9 | –
24 | N#CC(C#N)[C@@H]1CCC=C(Sc2ccccc2)[C@H]1Sc1ccccc1 | > 20 | 3.63 | –
25 | CN1CCCC(CNC23CC4CC(CC(C4)C2)C3)C1 (centres undefined) | > 501 | > 501 | –
26 | COc1ccc(C2C(C#N)=C(S)N(C3OC(CO)C(O)C(O)C3O)C(c3ccccc3)=C2C(C)=O)cc1 (centres undefined) | > 200 | 89.1 | –
27 | NNC(=O)C1C(C(=O)NN)C2C3C=CC(C4C(=O)NC(=O)C34)C12 (centres undefined) | > 200 | > 200 | –
28 | CC1CC(c2ccccc2)Nc2nc3ccccc3n21 (centres undefined) | > 151 | > 151 | –
29 | CCN=C(NC(=O)c1ccccc1Cl)SCSC(=NCC)NC(=O)c1ccccc1Cl | > 200 | > 200 | –
30 | O=[N+]([O-])/C=C/c1c(Cl)cccc1Cl | – | – | inactive
31 | CSc1nc2c(c(=O)[nH]1)N=C(c1ccc([N+](=O)[O-])cc1)CC(c1ccccc1)N2 (centres undefined) | – | – | inactive
32 | CSc1ncc2c(C#N)c3sc4ccccc4n3c(=O)c2n1 | > 200 | > 200 | –
33 | CC1=C2C(=C(CBr)OS1(=O)=O)C(=O)c1ccccc12 | > 741 | 38.9 | –
34 | COCC1=C(NNC(=O)c2ccncc2)[C@@]2(C)C(=CC1=O)Oc1c(C(C)=O)c(O)c(C)c(O)c12 | > 200 | 47.9 | –
35 | C#CCOCC12C=CC(O1)C1C(=O)OCC12 (centres undefined) | > 200 | > 200 | –
36 | CC(C)C1=C[C@@]23CCC4C(C)(C)CCC[C@]4(C(=O)O2)C3=CC1=O (some centres undefined) | > 43.7 | > 43.7 | –
37 | O=C(O)Cn1cc([N+](=O)[O-])c(=O)c2ccccc21 | > 200 | > 200 | –
38 | CCN(CC)CCn1ncc2c3c(=O)c4cccnc4n(CCN(CC)CC)c3ccc21 | > 200 | 3.47 | –
39 | O=C(NC/C(Cl)=C/Cl)Nc1cccc2c1CCCC2 | > 200 | 50.1 | –
40 | CC1(C)Cc2nnsc2C2=C1C(=O)CCS2 | – | – | inactive
41 | Cc1nc2cccc(F)c2c(=O)n1-c1nnc(C(F)(F)F)s1 | > 200 | 4.47 | –
42 | CCO[C@H]1O[C@@H]2OC3(C)CCC4[C@H](C)CCC([C@H]1C)[C@]42OO3 (some centres undefined) | > 200 | 35.5 | –
43 | C[C@@H](Br)[C@@H]1CC[C@H]2c3[nH]c4ccccc4c3CCN2C1 | > 200 | 17.4 | –
44 | CC(=O)NNc1nc(C)c(C(/C=C/c2ccc(Cl)cc2)=N/NC(=O)C[N+](C)(C)C)s1 | > 14.8 | > 14.8 | –

Row | Compound | EC50 [µM] | IC50 [µM] | outcome
45 | N#CCC(=O)Nc1ccccc1O | > 708 | > 708 | –
46 | CCCC(=O)NC1Cc2cc(C)cc(C)c21 (centres undefined) | > 45.7 | > 45.7 | –
47 | COc1ccc(OC(C)=O)c2c1CCC=CC2=O | – | – | inactive
48 | Cc1cc(C)c2c(=N)c3ccccc3n(CCCCCCn3c4ccccc4c(=N)c4c(C)cc(C)nc43)c2n1 | > 2 | 0.302 | –
49 | Cc1cccc2c1CCC21OC(=O)c2c1ccc1ccccc21 (centres undefined) | – | – | inactive
50 | CC(=O)On1c(-c2ccccc2-c2nc3ccccc3n2OC(C)=O)nc2ccccc21 | > 200 | 77.6 | –
51 | CC(=O)NC(CCC(=O)c1ccc(C)cc1)(C(=O)O)C(=O)O | > 200 | > 200 | –
52 | O=c1[nH]c(=O)n(C2OC(CO)C(O)C2O)c2ccsc12 (centres undefined) | > 200 | > 200 | –
53 | CCOC(=O)CCC(NC(=O)c1ccc(Nc2nc3cc(C(F)(F)F)ccc3nc2-c2ccccc2)cc1)C(=O)OCC (centres undefined) | > 200 | 8.13 | –
54 | Cc1cc(=O)c2cc3nc(-c4cccnc4)oc3c(Br)c2o1 | 182 | > 200 | –
55 | Cc1cc(-n2c(/C=C/c3ccc(Cl)cc3)nc3cc(Cl)ccc3c2=O)on1 | > 50.1 | > 50.1 | –
56 | O=c1c2ncn(COCCCl)c2n(-c2ccccc2)c(=S)n1-c1ccccc1 | – | – | inactive
57 | NC(=Nc1nc(-c2ccccn2)cc2ccccc12)c1ccccn1 | > 22.4 | 0.0851 | –
58 | CCOC(=O)/C(=C\c1ccc(C)cc1)[Se]c1ccccc1 | > 5.75 | > 5.75 | –
59 | O=C1CC(C(CC(=O)c2ccccc2)c2ccccc2)C(=O)c2ccccc2N1 (centres undefined) | > 200 | 12.6 | –
60 | CC12OC(=O)C(C#N)C1(C)C1C(=O)CCCC12 (centres undefined) | – | – | inactive
61 | N#Cc1c(-c2ccccc2)ssc1=S | > 200 | 14.1 | –
62 | CC1OC2=N[C@@H]1C(=O)N[C@@H](C(C)C)C1=N[C@H](C(=O)N[C@@H](C(C)C)C3=N[C@H](C(=O)N[C@@H](C(C)C)C4=N[C@H](C(=O)N[C@H]2C(C)C)C(C)O4)C(C)O3)C(C)O1 (some centres undefined) | > 200 | > 200 | –
63 | Cn1c(=O)n(C2(C)CSC2)c2ccccc21 | > 562 | 178 | –
64 | CCOP(=O)(OCC)C(Nc1cccc([N+](=O)[O-])c1)c1ccccc1 (centres undefined) | > 200 | 174 | –
